Reference: ChEMBL document CHEMBL4673337, “Phenolic Constituents of the Roots of Rhamnoneuron balansae with Senolytic Activity” (J Nat Prod, 2020)
The source made the active and inactive calls. No cut-off for these calls is given here.

Assays:
NHDF [1] = test: Cytotoxicity against human dermal fibroblast assessed as reduction in cell viability at 20 uM after 3 days by MTT assay; assay type: cell-based; details: 72 h, time 3 day
NHDF [2] = test: Senolytic activity in 35 passages senescent human dermal fibroblast cells assessed as reduction cell viability at 20 uM after 3 days by MTT assay relative to control; assay type: functional
[3] = molecular target: T1, Cyclin-dependent kinase inhibitor 2A (Homo sapiens) (UniProt P42771); test: Inhibition of GFP-tagged p16INK4A (unknown orgin) expressed in human dermal fibroblast at 20 uM after 24 hrs by renilla/firefly dual-luciferase reporter assay relative to control; assay type: cell-based; details: NHDF
T1 sequence (whole entry): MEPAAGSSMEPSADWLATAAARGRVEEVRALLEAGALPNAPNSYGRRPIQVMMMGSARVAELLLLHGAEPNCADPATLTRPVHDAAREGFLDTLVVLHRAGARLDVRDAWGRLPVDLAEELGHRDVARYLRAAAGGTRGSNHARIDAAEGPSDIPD

Row | SMILES | Activity (NHDF [1]) | other results
1 | COc1cc(CCc2oc3ccccc3c(=O)c2OC)ccc1O | Non-Toxic | 
2 | O=C1c2c(cc(O)c3c(-c4cc(O)cc(O)c4)c(-c4ccc(O)cc4)oc23)O[C@@H](c2ccc(O)cc2)[C@@H]1O | Non-Toxic | Activity (NHDF [2]; time 3 day): 34%; inhibition [3]: 32%
3 | O=C1c2c(cc(O[C@@H]3O[C@H](CO)[C@@H](O)[C@H](O)[C@H]3O)c3c2O[C@H](c2ccc(O)cc2)[C@H]3c2cc(O)cc(O)c2)O[C@H](c2ccc(O)c(O)c2)[C@H]1O | Non-Toxic | 
4 | COc1cc(CCc2oc3ccccc3c(=O)c2O)ccc1O | Non-Toxic | 
5 | COc1c(CCc2cccc(O)c2)oc2ccccc2c1=O | Non-Toxic | 
6 | O=C1C[C@@H](CCc2ccc(O)cc2)Oc2ccccc21 | Non-Toxic | Activity (NHDF [2]; time 3.0 day): Active
7 | O=C1c2c(cc(O)c3c2O[C@H](c2ccc(O)cc2)[C@H]3c2cc(O)cc(O)c2)O[C@@H](c2ccc(O)c(O)c2)[C@@H]1O | Non-Toxic | 
8 | O=C1c2c(cc(O)c3c2O[C@H](c2ccc(O[C@@H]4O[C@H](CO)[C@@H](O)[C@H](O)[C@H]4O)cc2)[C@H]3c2cc(O)cc(O)c2)O[C@@H](c2ccc(O)c(O)c2)[C@@H]1O | Non-Toxic | 
9 | O=C1c2c(cc(O)c3c2O[C@H](c2ccc(O)cc2)[C@H]3c2cc(O)cc(O)c2)O[C@@H](c2ccc(O)cc2)[C@@H]1O | Non-Toxic | 
10 | COc1cc(CC[C@@H]2CC(=O)c3ccccc3O2)ccc1O | Non-Toxic | Activity (NHDF [2]; time 3.0 day): Active
11 | O=C1C[C@@H](CCc2cccc(O)c2)Oc2ccccc21 | Non-Toxic | 
12 | O=C1c2c(cc(O[C@@H]3O[C@H](CO)[C@@H](O)[C@H](O)[C@H]3O)c3c2O[C@H](c2ccc(O)cc2)[C@H]3c2cc(O)cc(O)c2)O[C@@H](c2ccc(O)c(O)c2)[C@@H]1O | Non-Toxic | 
